Columns and labels:
[1] = Acute 8-day toxicity, single i.p. application to male mice (LD50); conditions: in vivo, ip, mouse i.p., 8 days
Procedure: The acute 8-day toxicity is determined after a single application i.p. to male mice (body weight 18 to 22 g). The mortality is noted for 8 days. The results are calculated as LD50 values, i.e. the dose which kills 50% of the animals.

[2] = test system: passive cutaneous anaphylaxis; assay: Inhibition of passive cutaneous anaphylaxis (PCA) in the rat, test substance p.o.; assay type: in vivo, rat (Sprague-Dawley); conditions: po, 50% reduction in dye concentration vs control, read-out: ED50 inhibiting effect, passive cutaneous anaphylaxy
Procedure: (§1) 2. Determining the inhibition of passive cutaneous anaphylaxis (PCA) and the inhibition of anaphylactoid cutaneous reactions induced by histamine and by serotonin.
For the preparation of an antiovalbumin serum, rich in IgE, which is used in the test, according to the method of Lehrer et al (J. Immunol. 116, (1976) 178-182) and Pauwels et al (Ann. Immunol. 230C., (1979), 49-58), Sprague-Dawley rats are sensitized by i.p. injection of 1 mg ovalbumin and 1 ml Bordetella pertussis suspension (vaxicoq, Merieux 3×10^10 organisms/ml). After 20 days the animals are given an injection of 10 mg ovalbumin in the same way, but without any additive. After a further 4 days, blood is removed from the animals and the blood is centrifuged. The antiserum thus obtained is stored at -20° C. and adjusted according to the method of Goose et al (Immunology 16 (1968) 749-760).
(§2) The determination of the inhibition of passive cutaneous anaphylaxis and the anaphylactoid cutaneous reactions induced by histamine and by serotonin, are carried out, as set forth below, according to the method of Martin and Baggiolini (Naunyn-Schmeiedeberg's Archives of Pharmacology 316 (1981) 186-189).
(§3) For passive sensitizing against ovalbumin, male Sprague-Dawley rates (body weight 150 to 165 g) are injected intradermally on a shaved part of the back with 0.05 ml of a 1:2.5 dilution of antiovalbumin serum, rich in IgE, in physiological sodium chloride solution.
(§4) 24 hours after the sensitizing, solutions of the test substances are administered orally to the rats. For comparison, a control group receives only the solvent.
(§5) Immediately thereafter 1.25 mg (-~8 mg/kg) ovalbumin to trigger the anaphylactic reaction, and 4 mg (-~26.4 mg/kg) of a blue dye dissolved in 0.5 ml phosphate-buffered physiological sodium chloride solution are administered i.v. to the animals.
(§6) After 30 minutes the animals are killed, the skin is removed and in the individual blue patches the quantity of dye contained therein is determined separately. According to the method of Mordelet-Danbrine et al (Therapie 29 (1974) 851-862) the dye is extracted from the individual patches in each case with 2.5 ml dimethylformamide at a temperature of 37° C. for 4 days and the quantity of dye obtained in each case in the extraction solution is determined by spectrophotometric measurement. The doses of the test substances which cause a 50% reduction in the dye concentration compared with the control group are calculated as ED50 values.

[3] = test system: histamine-induced anaphylactoidal reaction; assay: Inhibition of histamine-induced anaphylactoid cutaneous reaction in the rat, test substance p.o.; assay type: in vivo, rat (Sprague-Dawley); conditions: po, 40 μg histamine intradermally, read-out: ED50 inhibiting effect, histamine-induced anaphylactoidal reaction
Procedure: as §1, §2, §3, §4
(§7) To trigger the histamine-induced and serotonin-induced anaphylactoid reactions of the skin, the animals are injected intradermally 30 minutes later on a second shaved part of the back with a solution of 40 μg histamine in 0.05 ml physiological sodium chloride solution and on a third shaved part of the back with a solution of 1 μg serotonin in 0.05 physiological sodium chloride solution.
as §5, §6

[4] = test system: serotonin induced anaphylactoidal reaction; assay: Inhibition of serotonin-induced anaphylactoid cutaneous reaction in the rat, test substance p.o.; assay type: in vivo, rat (Sprague-Dawley); conditions: po, 1 μg serotonin intradermally, read-out: ED50 inhibiting effect, serotonin induced anaphylactoidal reaction
Procedure: as §1, §2, §3, §4, §7, §5, §6

[5] = test system: peritonal mast cells of rats; assay: In vitro inhibition of anaphylactically caused histamine release from peritonal mast cells of rats; assay type: cell-based, rat (Sprague-Dawley); conditions: Rattus norvegicus, Mast cell; ovalbumin trigger, 1 minute preincubation at 37° C.; read-out: EC50 in vitro inhibiting effect with respect to anaphylactically caused histamine release from mast cells of the rat
Procedure: 3. Determining the inhibiting effect in vitro on the release of histamine, caused anaphylactically, from peritonal mast cells of rats.
In order to obtain the peritonal mast cells, Sprague-Dawley rats are killed by inhalation of ether and immediately after cessation of breathing has occurred, 15 ml of a cold solution of 1 mg/ml human serum albumin in phosphate-buffered sodium chloride solution are injected into the abdominal cavity. The peritonal fluid is then removed and the mast cells are separated therefrom by centrifuging and are suspended in phosphate-buffered sodium chloride solution, whereafter the suspension is adjusted to a mast cell concentration of 5×10^5 per ml.
The mast cell suspension, divided up into samples each of 100 μl, is introduced into test-tubes and each sample, for passive sensitizing, is mixed with 100 μl of a 1:10 dilution of IgE-rich antiovalbumin serum in physiological sodium chloride solution (prepared according to the method described above) and is incubated for 30 minutes at a temperature of 37° C. (water bath). For the removal of unbonded IgE, the mast cells are then washed with 2 ml phosphate-buffered sodium chloride solution, centrifuged, and the supernatant fluid is discarded. Then the mast cells are incubated for 1 minute at 37° C. with 200 μl of a solution of the test substance in phosphate-buffered sodium chloride solution. A control group is only incubated with the same quantity of phosphate-buffered sodium chloride solution which is free of test substance.
After an incubation period of 3 minutes at 37° C., the reaction is stopped by rapid cooling in an ice bath. Then centrifuging takes place, the supernatant fluid is decanted and the histamine content therein is determined directly, without further extraction, spectrofluorimetrically according to the method of Shore (J. Pharmac. Exp. Ther. 127 (1959) 182-186).
For the extraction of the residual histamine still contained in the mast cells of the undecanted material, the latter is mixed with 2 ml phosphate-buffered sodium chloride solution and the suspension is heated in a boiling water bath. Then centrifuging takes place, the supernatant fluid is decanted and therein the residual histamine extracted from the mast cells is determined spectrofluorimetrically.
For each sample, the quantity of the released histamine is calculated as percentage proportion of the overall quantity of histamine (=total of released histamine and residual histamine retained in the mast cells).
The EC50 values are calculated to be those molar concentrations of the test substances in the respective test solutions which produce a 50% inhibition of the histamine release compared to the control group.

SMILES | LD50 at 192 h [1] | ED50 [2] | ED50 [3] | ED50 [4] | EC50 [5]
Cc1cc(=O)n(CCCN2CCN(c3ccccn3)CC2)n1-c1ccccc1 [Example 45] | 240 mg/kg | 6.3 mg/kg | 11 mg/kg | 8 mg/kg | –
COc1ccc(-n2c(C)cc(=O)n2CCCN2CCN(c3cc(C)ccn3)CC2)cc1 [Example 47] | 190 mg/kg | 5.96 mg/kg | 6.8 mg/kg | 6.8 mg/kg | –
CCCc1cc(=O)n(CCCN2CCN(c3ccc(F)cc3)CC2)n1-c1ccc(Cl)c(Cl)c1 [Example 22] | – | – | – | – | 43 µM
CCOc1ccc(-n2c(C)cc(=O)n2CCCN2CCN(c3cc(Cl)ccc3C)CC2)cc1 [Example 30] | – | – | – | – | 18 µM
Cc1ccc(-n2c(C)cc(=O)n2CCCN2CCN(c3cc(C)ccn3)CC2)cc1 [Example 55] | 135 mg/kg | 7.26 mg/kg | 11.9 mg/kg | 11.8 mg/kg | –
Cc1ccnc(N2CCN(CCCn3c(=O)cc(C)n3-c3ccc([N+](=O)[O-])cc3)CC2)c1 [Example 2, 5-methyl-1-(4-nitrophenyl)-2-{3-[4-(4-methyl-pyrid-2-yl)-piperazin-1-yl]-propyl}-pyrazolin-3-one] | 90 mg/kg | 1.9 mg/kg | 1.75 mg/kg | 2.7 mg/kg | –
Cc1ccnc(N2CCN(CCCn3c(=O)cc(C)n3-c3ccc(Cl)cc3)CC2)c1 [Example 18] | 205 mg/kg | 4.7 mg/kg | 6.6 mg/kg | 6.2 mg/kg | 230 µM
Cc1ccnc(N2CCN(CCCn3c(=O)cc(C4CCCCC4)n3-c3ccccc3)CC2)c1 [Example 15] | 90 mg/kg | 1.9 mg/kg | 4.4 mg/kg | 1.7 mg/kg | 14 µM
COc1ccc(-n2c(C)cc(=O)n2CCCN2CCN(c3cc(C)ccn3)CC2)cc1OC [Example 56] | > 350 mg/kg | 5.7 mg/kg | 3.85 mg/kg | 6.29 mg/kg | –
O=c1cc(C2CC2)n(-c2ccccc2)n1CCCN1CCN(c2ccc(F)cc2)CC1 [Example 43] | – | 2.45 mg/kg | 5.79 mg/kg | 3.25 mg/kg | –
CCc1cc(=O)n(CCCN2CCN(c3cc(C)ccn3)CC2)n1-c1ccc([N+](=O)[O-])cc1 [Example 38] | 93 mg/kg | 3.18 mg/kg | 3.88 mg/kg | 5.54 mg/kg | –
Cc1ccnc(N2CCN(CCCn3c(=O)cc(C)n3-c3ccc(C#N)cc3)CC2)c1 [Example 46] | 101 mg/kg | 6.3 mg/kg | 2.8 mg/kg | 8 mg/kg | –
COC(=O)c1ccccc1-n1c(C)cc(=O)n1CCCN1CCN(c2cc(C)ccn2)CC1 [Example 17] | 342 mg/kg | 5 mg/kg | 12.6 mg/kg | 10.8 mg/kg | –
Cc1ccnc(N2CCN(CCCn3c(=O)cc(C4CCCC4)n3-c3ccccc3)CC2)c1 [Example 58] | 95 mg/kg | 1.17 mg/kg | 10 mg/kg | 1.41 mg/kg | 120 µM
Cc1ccnc(N2CCN(CCCn3c(=O)cc(C)n3-c3ccc(O)cc3)CC2)c1 [Example 7, 5-methyl-1-(4-hydroxyphenyl)-2-{3-[4-(4-methyl-pyrid-2-yl)-piperazin-1-yl]-propyl}-pyrazolin-3-one] | 178 mg/kg | 6.6 mg/kg | 7.9 mg/kg | 13 mg/kg | –
COc1ccc(N2CCN(CCCn3c(=O)cc(C)n3-c3ccc(C)cc3Cl)CC2)cc1 [Example 20] | – | – | – | – | 10 µM
CCCc1cc(=O)n(CCCN2CCN(c3cc(C)ccn3)CC2)n1-c1ccccc1 [Example 13] | 96 mg/kg | 2.94 mg/kg | 5.48 mg/kg | 1.87 mg/kg | –
Cc1ccnc(N2CCN(CCCCn3c(=O)cc(C)n3-c3ccccc3)CC2)c1 [Example 4, 5-methyl-1-phenyl-2-{4-[4-(4-methyl-pyrid-2-yl)-piperazin-1-yl]-butyl}-pyrazolin-3-one] | 130 mg/kg | 3.9 mg/kg | 7.98 mg/kg | 5.9 mg/kg | –
O=c1cc(C2CCCCC2)n(-c2ccccc2)n1CCCN1CCN(c2ccc(F)cc2)CC1 [Example 49] | 96 mg/kg | 4.9 mg/kg | 10.6 mg/kg | 3.59 mg/kg | 57 µM
CC(=O)c1ccc(-n2c(C)cc(=O)n2CCCN2CCN(c3cc(C)ccn3)CC2)cc1 [Example 44] | 170 mg/kg | 5.4 mg/kg | 3.15 mg/kg | 8.9 mg/kg | –
CCCCCCc1cc(=O)n(CCCN2CCN(c3cc(C)ccn3)CC2)n1-c1ccccc1 [Example 26] | 72.5 mg/kg | 6.75 mg/kg | 6.3 mg/kg | 7.8 mg/kg | 35 µM
Cc1cc(=O)n(CCCN2CCN(c3ccccc3)CC2)n1-c1ccccc1 [Example 11] | 108 mg/kg | 4.65 mg/kg | 10.1 mg/kg | 10.2 mg/kg | –
CCc1cc(=O)n(CCCN2CCN(c3cc(C)ccn3)CC2)n1-c1ccc(Cl)cc1 [Example 23] | 168 mg/kg | 7.85 mg/kg | 4.7 mg/kg | 5.8 mg/kg | 140 µM
COc1ccccc1-n1c(C)cc(=O)n1CCCN1CCN(c2cc(C)ccn2)CC1 [Example 21] | 252 mg/kg | 7.1 mg/kg | 5.1 mg/kg | 8.3 mg/kg | –

From patent US4672063A, “Antiallergic 5-alkyl-1-phenyl-2-piperazinoalkylpyrazolin-3-one compounds” (Kali-Chemie Pharma GmbH, priority 1984, dated 1987)
